T/C data for 18 compounds are collected here from PubChem BioAssay AID328 (DTP/NCI, 2004).

The subject of this assay is BDF1 mice, P388 leukemia ip, median survival T/C. Nature of the assay: NCI In Vivo Anticancer Drug Screen. Data for tumor model P388 Leukemia (intraperitoneal) in B6D2F1 (BDF1) mice. To be noted: endpoint: median survival time, higher = longer survival. The method, boiled down:
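T/C = treated-group survival ÷ vehicle-control survival; tumour transplanted into mice before dosing.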

The mark [1] stands for this setting: dose: 50.0 mg/kg/injection, schedule: Q01DX009 (ip), vehicle: saline with Tween-80.
Where [2] appears, read: dose: 100.0 mg/kg/injection, schedule: Q01DX009 (ip), vehicle: saline with Tween-80.
[3] abbreviates: dose: 200.0 mg/kg/injection, schedule: Q01DX009 (ip), vehicle: saline with Tween-80.
[4] abbreviates: dose: 200.0 mg/kg/injection, schedule: Q04DX003 (ip), vehicle: saline with Tween-80.
Setting [5] is: dose: 100.0 mg/kg/injection, schedule: Q01DX009 (ip), vehicle: Klucel (hydroxypropylcellulose) (HPC).
The mark [6] stands for this setting: dose: 200.0 mg/kg/injection, schedule: Q01DX009 (ip), vehicle: Klucel (hydroxypropylcellulose) (HPC).
Setting [7] is: dose: 25.0 mg/kg/injection, schedule: Q01DX009 (ip), vehicle: Klucel (hydroxypropylcellulose) (HPC).
The mark [8] stands for this setting: dose: 50.0 mg/kg/injection, schedule: Q01DX009 (ip), vehicle: Klucel (hydroxypropylcellulose) (HPC).
Setting [9] is: dose: 100.0 mg/kg/injection, schedule: Q04DX003 (ip), vehicle: Klucel (hydroxypropylcellulose) (HPC).
The mark [10] stands for this setting: dose: 200.0 mg/kg/injection, schedule: Q04DX003 (ip), vehicle: Klucel (hydroxypropylcellulose) (HPC).
Setting [11] is: dose: 400.0 mg/kg/injection, schedule: Q04DX003 (ip), vehicle: Klucel (hydroxypropylcellulose) (HPC).
Where [12] appears, read: dose: 400.0 mg/kg/injection, schedule: Q01DX009 (ip), vehicle: Klucel (hydroxypropylcellulose) (HPC).

“And” between values parts separate entries of the source, which are not always exact repeats. Identical values can stand only once. Inconclusive results and toxic doses are left out.

Take `N#CC1C=Cc2ccccc2N1C(=O)Oc1ccccc1` (stereo unspecified): the T/C under setting [1] was 110 % of control; the T/C (dose: 100.0 mg/kg/injection, schedule: Q01DX001 (ip), vehicle: other) is 100 % of control; the T/C under setting [2] was 100 % of control; the T/C (dose: 100.0 mg/kg/injection, schedule: Q04DX003 (ip), vehicle: saline with Tween-80) is 95 % of control; the T/C (dose: 200.0 mg/kg/injection, schedule: Q01DX001 (ip), vehicle: other) was 109 % of control; the T/C under setting [3] is 110 % of control. In addition, the T/C is, setting by setting: under setting [4], 100 % of control; (dose: 400.0 mg/kg/injection, schedule: Q01DX001 (ip), vehicle: other) 90 % of control; (dose: 400.0 mg/kg/injection, schedule: Q04DX003 (ip), vehicle: saline with Tween-80) 113 % of control.
Take `COc1cc2c(c(OC)c1OC)CCC1(C)C(=O)NN=C21` (stereo unspecified): the T/C is, setting by setting: under setting [5], 108 % of control; under setting [6], 106 % of control.
With `C(=Nc1ccc2c(c1)Cc1ccccc1-2)c1ccc2ccccc2c1`, the T/C (dose: 12.5 mg/kg/injection, schedule: Q04DX002 (ip), vehicle: saline with Tween-80) was 103 % of control; the T/C (dose: 25.0 mg/kg/injection, schedule: Q04DX002 (ip), vehicle: saline with Tween-80) is 94 % of control; the T/C (dose: 50.0 mg/kg/injection, schedule: Q04DX002 (ip), vehicle: saline with Tween-80) was 97 % of control.
Take `CC1(C)N=C(N)N=C(N)N1c1ccc(C(=O)CCl)cc1`: the T/C was 108 % of control (dose: 10.0 mg/kg/injection, schedule: Q01DX009 (ip), vehicle: saline); 108 % of control (dose: 20.0 mg/kg/injection, schedule: Q01DX009 (ip), vehicle: saline); 118 % of control (dose: 40.0 mg/kg/injection, schedule: Q01DX009 (ip), vehicle: saline).
In the case of `Cc1c(C)c(CC#N)c(C)c(C)c1CC#N`, the T/C was 91 % of control under setting [7]; 91 % of control under setting [8]; 87 % of control under setting [5]; 92 % of control under setting [9]; 91 % of control under setting [6].
Take `O=C1C(Cl)CCCCC1Cl` (stereo unspecified): the T/C runs as follows: under setting [8], 100 % of control; under setting [5], 100 % of control; under setting [6], 115 % of control.
As to `O=C(O)CC1SC(=S)N(c2ccccc2)C1=O` (stereo unspecified), the T/C runs as follows: under setting [1], 101 % of control; under setting [2], 105 % of control.
For the compound `CCN(CC)C(=O)c1ccncc1`, the T/C (dose: 100.0 mg/kg/injection, schedule: Q04DX003 (ip), vehicle: saline) was 109 % of control and the T/C (dose: 200.0 mg/kg/injection, schedule: Q04DX003 (ip), vehicle: saline) was 100 % of control.
Take `O=[N+]([O-])C(Br)(c1ccccc1)S(=O)(=O)Cc1ccccc1` (stereo unspecified): the T/C runs as follows: under setting [9], 104 % of control; under setting [10], 108 % of control; under setting [11], 108 % of control.
On to `C#CC[N+]12CN3CN(CN(C3)C1)C2`, for which the T/C (dose: 50.0 mg/kg/injection, schedule: Q01DX009 (ip), vehicle: saline) is 123 % of control.
Take `C[N+](C)(C)N=C1CCC2(CC1)c1ccccc1-c1ccccc12`: the T/C reads like this: (dose: 5.15 mg/kg/injection, schedule: Q04DX003 (ip), vehicle: saline) 95 % of control; (dose: 6.25 mg/kg/injection, schedule: Q01DX009 (ip), vehicle: saline) 95 % of control; (dose: 10.31 mg/kg/injection, schedule: Q04DX003 (ip), vehicle: saline) 100 % of control; (dose: 12.5 mg/kg/injection, schedule: Q01DX009 (ip), vehicle: saline) 91 % of control; (dose: 20.62 mg/kg/injection, schedule: Q04DX003 (ip), vehicle: saline) 115 % of control; (dose: 25.0 mg/kg/injection, schedule: Q01DX009 (ip), vehicle: saline) 100 % of control. The T/C was 113 % of control (dose: 35.0 mg/kg/injection, schedule: Q01DX009 (ip), vehicle: saline); 104 % of control (dose: 41.25 mg/kg/injection, schedule: Q04DX003 (ip), vehicle: saline); 90 % of control (dose: 55.0 mg/kg/injection, schedule: Q01DX009 (ip), vehicle: saline).
For the compound `Cc1cc(C)c(-c2cc(O)c(C)cc2O)c(C)c1`, the T/C was 103 % of control (dose: 0.39 mg/kg/injection, schedule: Q04DX003 (ip), vehicle: other); 108 % of control (dose: 0.78 mg/kg/injection, schedule: Q04DX003 (ip), vehicle: other); 104 % of control (dose: 1.56 mg/kg/injection, schedule: Q04DX003 (ip), vehicle: other); 90 % of control and 108 % of control (dose: 3.12 mg/kg/injection, schedule: Q04DX003 (ip), vehicle: other); 88 % of control and 100 % of control (dose: 6.25 mg/kg/injection, schedule: Q04DX003 (ip), vehicle: other); 97 % of control (dose: 12.5 mg/kg/injection, schedule: Q01DX009 (ip), vehicle: other). Also, the T/C by setting is: (dose: 12.5 mg/kg/injection, schedule: Q04DX003 (ip), vehicle: other) 108 % of control and 109 % of control; (dose: 25.0 mg/kg/injection, schedule: Q01DX009 (ip), vehicle: other) 118 % of control; (dose: 25.0 mg/kg/injection, schedule: Q04DX003 (ip), vehicle: other) 92 % of control; (dose: 25.0 mg/kg/injection, schedule: Q04DX003 (ip), vehicle: saline with Tween-80) 100 % of control; (dose: 65.0 mg/kg/injection, schedule: Q04DX003 (ip), vehicle: Klucel (hydroxypropylcellulose) (HPC)) 105 % of control; (dose: 100.0 mg/kg/injection, schedule: Q01DX009 (ip), vehicle: other) 102 % of control. The T/C is, setting by setting: under setting [9], 114 % of control; (dose: 150.0 mg/kg/injection, schedule: Q04DX003 (ip), vehicle: Klucel (hydroxypropylcellulose) (HPC)) 109 % of control; under setting [4], 93 % of control.
Take `C[n+]1c(/C=C/c2ccc(O)c3ncccc23)[se]c2ccccc21`: the T/C is 104 % of control (dose: 0.25 mg/kg/injection, schedule: Q01DX010 (ip), vehicle: saline); 118 % of control (dose: 0.5 mg/kg/injection, schedule: Q01DX010 (ip), vehicle: saline); 104 % of control (dose: 1.0 mg/kg/injection, schedule: Q01DX010 (ip), vehicle: saline); 165 % of control (dose: 1.5 mg/kg/injection, schedule: Q01DX010 (ip), vehicle: acetone); 165 % of control (dose: 3.0 mg/kg/injection, schedule: Q01DX010 (ip), vehicle: acetone); 122 % of control (dose: 3.0 mg/kg/injection, schedule: Q01DX010 (ip), vehicle: saline). In addition, the T/C reads like this: (dose: 6.0 mg/kg/injection, schedule: Q01DX010 (ip), vehicle: acetone) 185 % of control; (dose: 25.0 mg/kg/injection, schedule: Q01DX010 (ip), vehicle: saline) 118 % of control.
As for `O=c1[nH]c(=S)c2c3c(sc2[nH]1)CCCC3`, the T/C reads like this: (dose: 75.0 mg/kg/injection, schedule: Q04DX003 (ip), vehicle: saline sonified) 100 % of control; (dose: 150.0 mg/kg/injection, schedule: Q04DX003 (ip), vehicle: saline sonified) 100 % of control; (dose: 300.0 mg/kg/injection, schedule: Q04DX003 (ip), vehicle: saline sonified) 100 % of control.
For the compound `Cc1cc(C)cc(CCc2cc(C)cc(C)c2)c1`, the T/C is, setting by setting: under setting [9], 100 % of control; under setting [6], 109 % of control; under setting [10], 90 % of control; under setting [12], 100 % of control; under setting [11], 95 % of control.
`CNC(=O)C(C)(C)c1ccccc1`: the T/C was 90 % of control under setting [5], 90 % of control under setting [6] and 104 % of control under setting [12].
Regarding `CN(C)N=Nc1ccccc1[N+](=O)[O-]`, the T/C is, setting by setting: under setting [7], 107 % of control; under setting [5], 92 % of control.
On to `Cc1ccc(-n2c(O)c(C=N)c(=O)[nH]c2=O)cc1`, for which the T/C is 86 % of control under setting [1], 86 % of control under setting [2] and 113 % of control under setting [3].
